According to BindingDB's records for doi:10.1021/jm00222a039 (1978):

Test: Inhibition of HMG-coA reductase in CD rat liver microsomal-cytosol fraction assessed as inhibition of fatty acid synthesis using [2-14C]acetate as substrate after 90 mins by scintillation counting analysis

Row | IC50 | Structure (SMILES)
1 | 1600 µM | CC(CCc1ccc2oc3ccccc3c2c1)CC(=O)O (configuration not stated)
2 | 30 µM | CC(CCc1ccc2c(c1)-c1ccccc1S2(=O)=O)CC(=O)O (configuration not stated)
3 | 80 µM | CC(CCc1ccc(S(=O)(=O)c2ccccc2)cc1)CC(=O)O (configuration not stated)
4 | 780 µM | CC(CC(=O)O)CC(=O)c1ccc(Sc2ccccc2)cc1 (configuration not stated)
5 | 100 µM | CC(CCc1ccc(Sc2ccccc2)cc1)CC(=O)O (configuration not stated)
6 | 80 µM | CC(CCc1ccc(-c2ccccc2)cc1)CC(=O)O (configuration not stated)
7 | 430 µM | CC(CC(=O)O)CC(=O)c1ccc2oc3ccccc3c2c1 (configuration not stated)
8 | 80 µM | CC(CCc1ccc(Oc2ccccc2)cc1)CC(=O)O (configuration not stated)
9 | 2100 µM | CC(CC(=O)O)CC(=O)c1ccc(Oc2ccccc2)cc1 (configuration not stated)
10 | 860 µM | CC(CCc1ccc2sc3ccccc3c2c1)CC(=O)O (configuration not stated)
11 | 1200 µM | CC(CC(=O)O)CC(=O)c1ccc(-c2ccccc2)cc1 (configuration not stated)
12 | 930 µM | CC(CC(=O)O)CC(=O)c1ccc2sc3ccccc3c2c1 (configuration not stated)
